{
  "source": "patent US20220387447A1",
  "about": "“FORMULATIONS OF TESTOSTERONE AND METHODS OF TREATMENT THEREWITH” (BOARD OF REGENTS, THE UNIVERSITY OF TEXAS SYSTEM, priority 2016, published 2022)",
  "origin": "cited, not measured here",
  "key": {"[1]": {"settings": "intranasal administration; baseline mean 2.5 pmol/L"}, "[2]": {"tested_on": "women", "settings": "single-dose administration, sublingually"}},
  "data": [
    {"smiles": "CC12CCC(=O)C=C1CCC1C2CCC2(C)C(O)CCC12", "note": "(centres unmarked) [testosterone, Testosterone]", "values": [
      {"measurement": "maximum testosterone concentration (mean)", "setting": "[1]", "value": 168.2, "unit": "pmol/L"},
      {"measurement": "subjective sexual desire, genital responsiveness, and genital arousal", "setting": "[2]", "value": "increase"}
    ]}
  ]
}
